In patent US11466016B2, “Pharmaceutical compounds” (priority 2018, dated 2022):
Where a name gives a salt, the structure may show the parent alone.

Each compound was assayed against SHP2 (Homo sapiens (Human), UniProt Q06124) (assay: SHP2 Biochemical Assay (DiFMUP conversion, pIRS1 activating peptide)). Settings: not given.
Protocol: SHP2 activity was monitored by measuring the conversion of the surrogate substrate 6,8-difluoromethylumbelliferyl phosphate (DiFMUP) to the fluorescent product, 6,8-difluoromethylumbelliferone (DiFMU).
SHP2 was pre-incubated with test compounds and the activating peptide pIRS1 (H2N-LN(pY)IDLDLV-(PEG)8-LST(pY)ASINFQK-amide) for 30 min, prior to addition of the […] (DiFMUP), (Thermo Fisher D6567). […] Rates of reaction were then measured over 30 min by monitoring fluorescence on a BMG Pherastar reader at excitation 360 nm/emission 450 nm. IC50 values were calculated from the normalized dose-response plots using four parameter logistic curve fit.

Chain of SHP2 (Q06124 whole entry): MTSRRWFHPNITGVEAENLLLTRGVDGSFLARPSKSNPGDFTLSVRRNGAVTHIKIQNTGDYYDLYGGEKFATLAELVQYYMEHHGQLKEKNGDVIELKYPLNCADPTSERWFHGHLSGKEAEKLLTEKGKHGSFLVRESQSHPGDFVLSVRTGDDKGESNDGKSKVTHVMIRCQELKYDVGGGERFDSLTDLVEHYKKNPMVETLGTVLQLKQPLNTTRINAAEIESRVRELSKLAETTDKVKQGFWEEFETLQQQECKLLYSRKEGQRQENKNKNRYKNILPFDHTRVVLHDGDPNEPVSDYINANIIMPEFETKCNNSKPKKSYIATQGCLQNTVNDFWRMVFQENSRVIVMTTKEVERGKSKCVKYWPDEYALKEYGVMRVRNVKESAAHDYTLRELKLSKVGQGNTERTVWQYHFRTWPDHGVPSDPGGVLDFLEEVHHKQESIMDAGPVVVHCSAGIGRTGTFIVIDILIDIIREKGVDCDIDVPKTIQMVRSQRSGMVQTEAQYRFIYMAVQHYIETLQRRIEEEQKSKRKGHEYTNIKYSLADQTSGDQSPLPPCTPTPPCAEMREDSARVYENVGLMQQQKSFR

Point of comparison: N[C@H]1C[C@H]2CC[C@@H](C1)N2c1cnc2c(-c3ccc4nc(C5CCOC5)sc4c3Cl)c[nH]c2n1 (stereo partly drawn) [Example 39, endo-8-{7-[7-chloro-2-(oxolan-3-yl)-1,3-benzothiazol-6-yl]-5H-pyrrolo[2,3-b]pyrazin-3-yl}-8-azabicyclo[3.2.1]octan-3-amine, dihydrochloride salt], IC50 6.9 nM. Against it:
- Cc1nc2ccc(-c3c[nH]c4nc(N5[C@@H]6CC[C@H]5C[C@@H](N)C6)cnc34)c(Cl)c2c(=O)n1C [Example 52, 6-{3-[endo-3-amino-8-azabicyclo[3.2.1]octan-8-yl]-5H-pyrrolo[2,3-b]pyrazin-7-yl}-5-chloro-2,3-dimethyl-3,4-dihydroquinazolin-4-one, methanesulfonic acid salt] — 1.9-fold higher, 13 nM

Same assay, conditions: DiFMUP substrate, 0.25 μM pIRS1 peptide, 30 min pre-incubation; average where more than one data point; read-out: SHP2 (IC50)

Point of comparison: Cn1nc2ccc(-c3c[nH]c4nc(N5[C@@H]6CC[C@H]5C[C@@H](N)C6)cnc34)c(Cl)c2c1CO [Example 37, (5-{3-[endo-3-amino-8-azabicyclo[3.2.1]octan-8-yl]-5H-pyrrolo[2,3-b]pyrazin-7-yl}-4-chloro-2-methyl-2H-indazol-3-yl)methanol, methanesulfonic acid salt], IC50 51 nM. Against it:
- CCn1cc2c(Cl)c(-c3c[nH]c4nc(N5[C@@H]6CC[C@H]5C[C@@H](N)C6)cnc34)ccc2n1 [Example 26, endo-8-[7-(4-chloro-2-ethyl-2H-indazol-5-yl)-5H-pyrrolo[2,3-b]pyrazin-3-yl]-8-azabicyclo[3.2.1]octan-3-amine, hydrochloride salt] — 3.6-fold lower, 14 nM
- CCn1cc2c(Cl)c(-c3c[nH]c4nc(N5[C@@H]6CC[C@H]5C[C@H](N)C6)cnc34)ccc2n1 [Example 28, exo-8-[7-(4-chloro-2-ethyl-2H-indazol-5-yl)-5H-pyrrolo[2,3-b]pyrazin-3-yl]-8-azabicyclo[3.2.1]octan-3-amine, hydrochloride salt] — 5.3-fold lower, 9.6 nM
- Cn1cc2c(Cl)c(-c3c[nH]c4nc(N5CC[C@@H](N)[C@H](F)C5)cnc34)ccc2n1 [Example 29, (3R,4R)-1-[7-(4-chloro-2-methyl-2H-indazol-5-yl)-5H-pyrrolo[2,3-b]pyrazin-3-yl]-3-fluoropiperidin-4-amine, hydrochloride salt] — within 1.5-fold, 41 nM
- Cn1cc2c(Cl)c(-c3c[nH]c4nc(N5CC[C@H](N)[C@@H](F)C5)cnc34)ccc2n1 [Example 30, (3S,4S)-1-[7-(4-chloro-2-methyl-2H-indazol-5-yl)-5H-pyrrolo[2,3-b]pyrazin-3-yl]-3-fluoropiperidin-4-amine, hydrochloride salt] — 2.9-fold higher, 150 nM
- Cn1cc2c(Cl)c(-c3c[nH]c4nc(N5CC[C@H](N)[C@@H](O)C5)cnc34)ccc2n1 [Example 31, (3S,4S)-4-amino-1-[7-(4-chloro-2-methyl-2H-indazol-5-yl)-5H-pyrrolo[2,3-b]pyrazin-3-yl]piperidin-3-ol, hydrochloride salt] — 2.3-fold lower, 22 nM
- Cn1cc2c(Cl)c(-c3c[nH]c4nc(N5CC[C@@H](N)[C@@H](F)C5)cnc34)ccc2n1 [Example 32, (3S,4R)-1-[7-(4-chloro-2-methyl-2H-indazol-5-yl)-5H-pyrrolo[2,3-b]pyrazin-3-yl]-3-fluoropiperidin-4-amine, hydrochloride salt] — within 1.5-fold, 56 nM
- Cn1cc2c(Cl)c(-c3c[nH]c4nc(N5CC[C@H](N)[C@H](F)C5)cnc34)ccc2n1 [Example 33, (3R,4S)-1-[7-(4-chloro-2-methyl-2H-indazol-5-yl)-5H-pyrrolo[2,3-b]pyrazin-3-yl]-3-fluoropiperidin-4-amine, hydrochloride salt] — 1.5-fold lower, 33 nM
- Cn1cc2c(Cl)c(-c3c[nH]c4nc(N5[C@@H]6CC[C@H]5C[C@@H](N)C6)c(CO)nc34)ccc2n1 [Example 34, {3-[endo-3-amino-8-azabicyclo[3.2.1]octan-8-yl]-7-(4-chloro-2-methyl-2H-indazol-5-yl)-5H-pyrrolo[2,3-b]pyrazin-2-yl}methanol, hydrochloride salt] — 3.9-fold lower, 13 nM
- N[C@H]1C[C@H]2CC[C@@H](C1)N2c1cnc2c(-c3ccc4ccc(=O)[nH]c4c3Cl)c[nH]c2n1 [Example 35, 7-{3-[endo-3-amino-8-azabicyclo[3.2.1]octan-8-yl]-5H-pyrrolo[2,3-b]pyrazin-7-yl}-8-chloro-1,2-dihydroquinolin-2-one, hydrochloride salt] — 3.7-fold higher, 190 nM
- Cn1cc2c(F)c(-c3c[nH]c4nc(N5[C@@H]6CC[C@H]5C[C@@H](N)C6)cnc34)ccc2n1 [Example 38, endo-8-[7-(4-fluoro-2-methyl-2H-indazol-5-yl)-5H-pyrrolo[2,3-b]pyrazin-3-yl]-8-azabicyclo[3.2.1]octan-3-amine] — within 1.5-fold, 53 nM
- Cc1nc2c(-c3ccc4nn(C)cc4c3Cl)n[nH]c2nc1N1[C@@H]2CC[C@H]1C[C@H](N)C2 [Example 40, exo-8-[3-(4-chloro-2-methyl-2H-indazol-5-yl)-5-methyl-1H-pyrazolo[3,4-b]pyrazin-6-yl]-8-azabicyclo[3.2.1]octan-3-amine, dihydrochloride salt] — 5.1-fold lower, 10 nM
- Cn1nc2ccc(-c3c[nH]c4nc(N5[C@@H]6CC[C@H]5C[C@H](N)C6)cnc34)c(Cl)c2c1Cl [Example 41, exo-8-[7-(3,4-dichloro-2-methyl-2H-indazol-5-yl)-5H-pyrrolo[2,3-b]pyrazin-3-yl]-8-azabicyclo[3.2.1]octan-3-amine, hydrochloride salt] — 14-fold lower, 3.6 nM
- COCc1nc2ccc(-c3c[nH]c4nc(N5[C@@H]6CC[C@H]5C[C@@H](N)C6)cnc34)c(Cl)c2s1 [Example 43, endo-8-{7-[7-chloro-2-(methoxymethyl)-1,3-benzothiazol-6-yl]-5H-pyrrolo[2,3-b]pyrazin-3-yl}-8-azabicyclo[3.2.1]octan-3-amine, hydrochloride salt] — 8.8-fold lower, 5.8 nM
- N[C@H]1C[C@H]2CC[C@@H](C1)N2c1cnc2c(-c3ccc4nc(CO)sc4c3Cl)c[nH]c2n1 [Example 44, (6-{3-[endo-3-amino-8-azabicyclo[3.2.1]octan-8-yl]-5H-pyrrolo[2,3-b]pyrazin-7-yl}-7-chloro-1,3-benzothiazol-2-yl)methanol, hydrochloride salt] — 7.5-fold lower, 6.8 nM
- Cc1nc2c(-c3ccc4nn(C)cc4c3Cl)[nH]nc2nc1N1[C@@H]2CC[C@H]1CC(N)C2 (stereo partly drawn) [Example 48, endo-8-[3-(4-Chloro-2-methyl-2H-indazol-5-yl)-5-methyl-1H-pyrazolo[3,4-b]pyrazin-6-yl]-8-azabicyclo[3.2.1]octan-3-amine, hydrochloride salt] — 3-fold lower, 17 nM
- CN(C)C(=O)Cn1cc2c(Cl)c(-c3c[nH]c4nc(N5[C@@H]6CC[C@H]5C[C@@H](N)C6)cnc34)ccc2n1 [Example 49, 2-(5-{3-[endo-3-amino-8-azabicyclo[3.2.1]octan-8-yl]-5H-pyrrolo[2,3-b]pyrazin-7-yl}-4-chloro-2H-indazol-2-yl)-N,N-dimethylacetamide] — 3.4-fold lower, 15 nM
- Cn1cc2c(Cl)c(-c3c[nH]c4nc(N5[C@@H]6CC[C@H]5C[C@@H](N)C6)cnc34)cc(F)c2n1 [Example 50, endo-8-[7-(4-chloro-7-fluoro-2-methyl-2H-indazol-5-yl)-5H-pyrrolo[2,3-b]pyrazin-3-yl]-8-azabicyclo[3.2.1]octan-3-amine] — 1.6-fold lower, 31 nM
- Cn1nc2ccc(-c3c[nH]c4nc(N5[C@@H]6CC[C@H]5C[C@@H](N)C6)cnc34)c(Cl)c2n1 [Example 51, endo-8-[7-(4-chloro-2-methyl-2H-1,2,3-benzotriazol-5-yl)-5H-pyrrolo[2,3-b]pyrazin-3-yl]-8-azabicyclo[3.2.1]octan-3-amine] — 1.8-fold lower, 29 nM
